This is an account of results in US9938273B2 (Plexxikon Inc., priority 2015, dated 2018).

The target of experiment [1] is T1, BA/F3-FLT3-ITD + D835Y cells (Homo sapiens, UniProt P36888, D835Y, cells depend on it, form not given).
T1 sequence (P36888 1-993 D835Y): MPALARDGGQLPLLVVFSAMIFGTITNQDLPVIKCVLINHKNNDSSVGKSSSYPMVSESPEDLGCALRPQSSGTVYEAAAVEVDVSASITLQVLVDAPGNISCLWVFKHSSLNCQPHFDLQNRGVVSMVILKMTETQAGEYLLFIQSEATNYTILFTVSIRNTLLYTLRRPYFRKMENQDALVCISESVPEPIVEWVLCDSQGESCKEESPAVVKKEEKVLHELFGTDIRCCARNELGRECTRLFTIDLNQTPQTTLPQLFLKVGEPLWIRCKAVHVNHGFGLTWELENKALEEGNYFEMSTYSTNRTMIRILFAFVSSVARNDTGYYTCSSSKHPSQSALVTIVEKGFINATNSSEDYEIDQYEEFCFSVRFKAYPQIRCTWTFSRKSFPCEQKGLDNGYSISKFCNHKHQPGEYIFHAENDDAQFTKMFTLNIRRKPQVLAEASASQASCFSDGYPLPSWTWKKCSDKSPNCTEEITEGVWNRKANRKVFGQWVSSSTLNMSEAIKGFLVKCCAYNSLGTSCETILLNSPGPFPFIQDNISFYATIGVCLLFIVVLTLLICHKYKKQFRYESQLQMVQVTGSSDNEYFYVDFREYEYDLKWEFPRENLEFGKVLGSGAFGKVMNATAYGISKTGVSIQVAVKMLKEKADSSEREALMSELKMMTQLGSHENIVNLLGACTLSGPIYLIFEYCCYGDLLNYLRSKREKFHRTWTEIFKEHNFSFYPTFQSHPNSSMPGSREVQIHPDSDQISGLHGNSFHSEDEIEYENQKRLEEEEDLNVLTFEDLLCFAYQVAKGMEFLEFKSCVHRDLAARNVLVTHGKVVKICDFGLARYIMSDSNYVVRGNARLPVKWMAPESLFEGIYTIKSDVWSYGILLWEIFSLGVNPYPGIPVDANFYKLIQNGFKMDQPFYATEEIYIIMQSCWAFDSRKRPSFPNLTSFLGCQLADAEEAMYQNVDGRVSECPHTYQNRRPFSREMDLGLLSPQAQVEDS
Briefly: Cell proliferation assay (CellTiter-Glo), engineered BA/F3 cells. Format: cell-based, murine. Particulars: BaF3 FLT3 ITD/D835Y cells, 3d-Growth; read-out: BaF3_FLT3 ITD/D835Y 3d-Growth: IC50. The essentials:
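Three-day growth at 37 °C, 5% CO2 under compound (1 μM top final, 1:3 dilutions, eight points, 0.2% DMSO), read as ATP luminescence by CellTiter-Glo for IC50. Cells: MOLM-14 with FLT3 ITD plus D835Y or F691L, and IL-3-deprived Ba/F3 transfected with FLT3 ITD/D835Y, 1×10^4 per well.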

A further experiment addresses T2, c-KIT (Homo sapiens, UniProt P10721).
T2 construct: purchased Millipore 14-559K
Briefly: AlphaScreen kinase assay with recombinant enzyme, c-KIT. The format is biochemical. Particulars: 100ATP, 8pt, GMean. The essentials: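 AlphaScreen, biotinylated poly(Glu4-Tyr) 30 nM final; PY20 anti-pTyr acceptor and streptavidin donor beads 10 μg/mL; IC50 final conc. 10 μM (FLT3-D835Y, FLT3-ITD) / 100 μM (c-KIT); detection incubations 20 + 60 min RT; 580 nm emission.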

The structures appear in SMILES notation.

T2 sequence (P10721 26-976): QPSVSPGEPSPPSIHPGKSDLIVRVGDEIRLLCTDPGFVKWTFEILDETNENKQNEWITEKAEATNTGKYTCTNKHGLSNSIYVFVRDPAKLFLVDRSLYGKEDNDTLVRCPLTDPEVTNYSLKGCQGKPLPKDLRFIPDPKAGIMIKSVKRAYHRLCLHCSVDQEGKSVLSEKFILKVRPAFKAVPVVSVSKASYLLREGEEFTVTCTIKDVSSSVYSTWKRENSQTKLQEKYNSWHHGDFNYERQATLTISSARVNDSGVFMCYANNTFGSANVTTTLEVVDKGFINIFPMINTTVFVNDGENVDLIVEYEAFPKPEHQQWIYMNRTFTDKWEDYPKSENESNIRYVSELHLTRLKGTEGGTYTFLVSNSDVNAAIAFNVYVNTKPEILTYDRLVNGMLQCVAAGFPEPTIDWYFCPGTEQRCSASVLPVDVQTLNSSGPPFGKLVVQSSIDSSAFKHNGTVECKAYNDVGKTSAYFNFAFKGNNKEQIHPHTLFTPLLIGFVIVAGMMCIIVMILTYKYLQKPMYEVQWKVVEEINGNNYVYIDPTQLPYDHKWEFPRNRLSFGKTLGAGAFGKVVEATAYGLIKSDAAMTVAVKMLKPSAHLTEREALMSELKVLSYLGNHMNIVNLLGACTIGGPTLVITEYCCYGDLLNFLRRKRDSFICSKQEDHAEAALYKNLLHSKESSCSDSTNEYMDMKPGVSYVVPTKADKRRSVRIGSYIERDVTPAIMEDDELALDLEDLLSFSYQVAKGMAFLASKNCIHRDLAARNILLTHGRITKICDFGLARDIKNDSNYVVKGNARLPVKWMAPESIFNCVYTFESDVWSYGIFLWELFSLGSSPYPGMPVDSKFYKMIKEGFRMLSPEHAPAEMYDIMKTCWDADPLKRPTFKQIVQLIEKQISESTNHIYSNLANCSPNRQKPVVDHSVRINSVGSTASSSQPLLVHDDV

Turning to `CC(=O)NC1CCN(C(=O)c2cccc(-c3cnc4[nH]c(-c5ccc(F)cc5)cc4c3)c2)CC1` [Compound P-0001, N-[1-[3-[2-(4-fluorophenyl)-1H-pyrrolo[2,3-b]pyridin-5-yl]benzoyl]-4-piperidyl]acetamide], the GI50 in experiment [1] lay within 0.0001 to 10 µM. Further, the IC50 on c-KIT fell in the range of 0.0001 to 10 µM.
With `CON(C)C(=O)c1cccc(-c2cnc3[nH]c(-c4ccccc4)cc3c2)c1` [Compound P-0002, N-methoxy-N-methyl-3-(2-phenyl-1H-pyrrolo[2,3-b]pyridin-5-yl)benzamide], the GI50 in experiment [1] was 0.0001 to 10 µM. Further, the IC50 on c-KIT fell in the range of 0.0001 to 10 µM.
As to `NC1CN(C(=O)c2n[nH]c3ccc(-c4cnc5[nH]c(-c6ccccc6)cc5c4)cc23)C1` [Compound P-0029, (3-aminoazetidin-1-yl)-[5-(2-phenyl-1H-pyrrolo[2,3-b]pyridin-5-yl)-1H-indazol-3-yl]methanone], the GI50 in experiment [1] is 0.0001 to 10 µM. Further, the IC50 at c-KIT lay within 0.0001 to 10 µM.
For `CNC(=O)C1CCN(C(=O)c2cccc(-c3cnc4[nH]c(-c5ccccc5)cc4c3)n2)CC1` [Compound P-0030, N-methyl-1-[6-(2-phenyl-1H-pyrrolo[2,3-b]pyridin-5-yl)pyridine-2-carbonyl]piperidine-4-carboxamide], in experiment [1], the GI50 is 0.0001 to 10 µM. In addition, on c-KIT, the IC50 lay in the range of 0.0001 to 10 µM.
`CCNC(=O)NC1CCN(C(=O)c2cccc(-c3cnc4[nH]c(-c5ccccc5)cc4c3)n2)CC1` [Compound P-0031, 1-ethyl-3-[1-[6-(2-phenyl-1H-pyrrolo[2,3-b]pyridin-5-yl)pyridine-2-carbonyl]-4-piperidyl]urea]: the GI50 in experiment [1] was in the range of 0.0001 to 10 µM. Moreover, on c-KIT, the IC50 lay in the range of 0.0001 to 10 µM.
As to `CS(=O)(=O)NC1CCN(C(=O)c2cccc(-c3cnc4[nH]c(-c5ccccc5)cc4c3)n2)CC1` [Compound P-0032, N-[1-[6-(2-phenyl-1H-pyrrolo[2,3-b]pyridin-5-yl)pyridine-2-carbonyl]-4-piperidyl]methanesulfonamide], in experiment [1], the GI50 fell in the range of 0.0001 to 10 µM. The IC50 at c-KIT lay in the range of 10 to 50 µM.
`Cc1ccc(-c2cnc3[nH]c(-c4ccccc4)cc3c2)nc1C(=O)N1CCC(N)CC1` [Compound P-0033, (4-amino-1-piperidyl)-[3-methyl-6-(2-phenyl-1H-pyrrolo[2,3-b]pyridin-5-yl)-2-pyridyl]methanone]: the GI50 in experiment [1] was in the range of 0.0001 to 10 µM. Also, on c-KIT, the IC50 lay within 0.0001 to 10 µM.
For `NC1CCN(c2cccc3ccc(-c4cnc5[nH]c(-c6ccccc6)cc5c4)nc23)CC1` [Compound P-0034, 1-[2-(2-phenyl-1H-pyrrolo[2,3-b]pyridin-5-yl)-8-quinolyl]piperidin-4-amine], in experiment [1], the GI50 was in the range of 0.0001 to 10 µM. Besides, on c-KIT, the IC50 was 0.0001 to 10 µM.
`Cc1ccc(-c2cnc3[nH]c(-c4ccccc4)cc3c2)cc1C(=O)N1CCC(N)CC1` [Compound P-0035, (4-amino-1-piperidyl)-[2-methyl-5-(2-phenyl-1H-pyrrolo[2,3-b]pyridin-5-yl)phenyl]methanone]: in experiment [1], the GI50 lay within 0.0001 to 10 µM. At c-KIT, the IC50 lay within 0.0001 to 10 µM.
`N[C@H]1CCN(C(=O)c2cccc(-c3cnc4[nH]c(-c5ccccc5)cc4c3)c2)C1` [Compound P-0036, [(3S)-3-aminopyrrolidin-1-yl]-[3-(2-phenyl-1H-pyrrolo[2,3-b]pyridin-5-yl)phenyl]methanone]: the GI50 in experiment [1] was 0.0001 to 10 µM. Besides, the IC50 on c-KIT is 0.0001 to 10 µM.
As to `NC1CCN(C(=O)c2cc(-c3cnc4[nH]c(-c5ccccc5)cc4c3)ccn2)CC1` [Compound P-0038, (4-amino-1-piperidyl)-[4-(2-phenyl-1H-pyrrolo[2,3-b]pyridin-5-yl)-2-pyridyl]methanone], the GI50 in experiment [1] was in the range of 0.0001 to 10 µM. Also, the IC50 on c-KIT is 0.0001 to 10 µM.
For the compound `O=C(NC1CCNCC1)c1n[nH]c2ccc(-c3cnc4[nH]c(-c5ccccc5)cc4c3)cc12` [Compound P-0039, 5-(2-phenyl-1H-pyrrolo[2,3-b]pyridin-5-yl)-N-(4-piperidyl)-1H-indazole-3-carboxamide], in experiment [1], the GI50 lay within 0.0001 to 10 µM. Moreover, the IC50 at c-KIT was in the range of 0.0001 to 10 µM.
In the case of `CNC1CCN(C(=O)c2cccc(-c3cnc4[nH]c(-c5ccccc5)cc4c3)n2)CC1` [Compound P-0041, [4-(methylamino)-1-piperidyl]-[6-(2-phenyl-1H-pyrrolo[2,3-b]pyridin-5-yl)-2-pyridyl]methanone], the GI50 in experiment [1] is 0.0001 to 10 µM. For the same compound, the IC50 on c-KIT is 0.0001 to 10 µM.
`NC1CCN(C(=O)c2c[nH]c3ccc(-c4cnc5[nH]c(-c6ccccc6)cc5c4)cc23)CC1` [Compound P-0042, (4-amino-1-piperidyl)-[5-(2-phenyl-1H-pyrrolo[2,3-b]pyridin-5-yl)-1H-indol-3-yl]methanone]: in experiment [1], the GI50 is 0.0001 to 10 µM. The IC50 on c-KIT lay within 0.0001 to 10 µM.
With `O=C(c1cccc(-c2cnc3[nH]c(-c4ccccc4)cc3c2)n1)C1CCNCC1` [Compound P-0043, [6-(2-phenyl-1H-pyrrolo[2,3-b]pyridin-5-yl)-2-pyridyl]-(4-piperidyl)methanone], the GI50 in experiment [1] was 0.0001 to 10 µM. For the same compound, the IC50 on c-KIT fell in the range of 0.0001 to 10 µM.
Take `CNC1CCN(C(=O)c2n[nH]c3ccc(-c4cnc5[nH]c(-c6ccccc6)cc5c4)cc23)CC1` [Compound P-0044, [4-(methylamino)-1-piperidyl]-[5-(2-phenyl-1H-pyrrolo[2,3-b]pyridin-5-yl)-1H-indazol-3-yl]methanone]: the GI50 in experiment [1] lay within 0.0001 to 10 µM. At c-KIT, the IC50 fell in the range of 0.0001 to 10 µM.
In the case of `O=C(NC1CCNC1)c1cccc(-c2cnc3[nH]c(-c4ccccc4)cc3c2)n1` (centres unmarked) [Compound P-0045, 6-(2-phenyl-1H-pyrrolo[2,3-b]pyridin-5-yl)-N-pyrrolidin-3-yl-pyridine-2-carboxamide], in experiment [1], the GI50 was in the range of 0.0001 to 10 µM. Moreover, the IC50 at c-KIT lay within 0.0001 to 10 µM.
As to `N[C@H]1CCN(C(=O)c2cc(-c3cnc4[nH]c(-c5ccccc5)cc4c3)ccn2)C1` [Compound P-0046, [(3S)-3-aminopyrrolidin-1-yl]-[4-(2-phenyl-1H-pyrrolo[2,3-b]pyridin-5-yl)-2-pyridyl]methanone], the GI50 in experiment [1] lay in the range of 0.0001 to 10 µM. Moreover, the IC50 on c-KIT is 0.0001 to 10 µM.
As for `NC1CCC(C(=O)N2Cc3c(cccc3-c3cnc4[nH]c(-c5ccccc5)cc4c3)C2=O)C1` (centres unmarked) [Compound P-0047, 2-(3-aminocyclopentanecarbonyl)-4-(2-phenyl-1H-pyrrolo[2,3-b]pyridin-5-yl)isoindolin-1-one], in experiment [1], the GI50 lay within 0.0001 to 10 µM. For the same compound, the IC50 at c-KIT was 0.0001 to 10 µM.
`N[C@H]1CCN(C(=O)c2csc(-c3cnc4[nH]c(-c5ccccc5)cc4c3)n2)C1` [Compound P-0048, [(3S)-3-aminopyrrolidin-1-yl]-[2-(2-phenyl-1H-pyrrolo[2,3-b]pyridin-5-yl)thiazol-4-yl]methanone]: the GI50 in experiment [1] lay within 50 to 100 µM.
As to `CN(C(=O)c1cccc(-c2cnc3[nH]c(-c4ccccc4)cc3c2)n1)C1CCNC1` (centres unmarked) [Compound P-0076, N-methyl-6-(2-phenyl-1H-pyrrolo[2,3-b]pyridin-5-yl)-N-pyrrolidin-3-yl-pyridine-2-carboxamide], the GI50 in experiment [1] lay within 0.0001 to 10 µM.
Same read-out and setting: for `CNC1CCCN(C(=O)c2cccc(-c3cnc4[nH]c(-c5ccccc5)cc4c3)n2)C1` (centres unmarked) [Compound P-0080, [3-(methylamino)-1-piperidyl]-[6-(2-phenyl-1H-pyrrolo[2,3-b]pyridin-5-yl)-2-pyridyl]methanone] the value was 0.0001 to 10 µM; for `CC1(N)CCN(C(=O)c2cccc(-c3cnc4[nH]c(-c5ccccc5)cc4c3)n2)CC1` [Compound P-0081, (4-amino-4-methyl-1-piperidyl)-[6-(2-phenyl-1H-pyrrolo[2,3-b]pyridin-5-yl)-2-pyridyl]methanone], 0.0001 to 10 µM; for `CC1(N)CCCN(C(=O)c2cccc(-c3cnc4[nH]c(-c5ccccc5)cc4c3)n2)C1` (centres unmarked) [Compound P-0082, (3-amino-3-methyl-1-piperidyl)-[6-(2-phenyl-1H-pyrrolo[2,3-b]pyridin-5-yl)-2-pyridyl]methanone], 0.0001 to 10 µM.
As for `N[C@@H]1CN(C(=O)c2cccc(-c3cnc4[nH]c(-c5ccccc5)cc4c3)n2)CC12CC2` [Compound P-0083, [(7S)-7-amino-5-azaspiro[2.4]heptan-5-yl]-[6-(2-phenyl-1H-pyrrolo[2,3-b]pyridin-5-yl)-2-pyridyl]methanone], the GI50 in experiment [1] is 0.0001 to 10 µM.
